PMC8968063, “Key features of inhibitor binding to the human mitochondrial pyruvate carrier hetero-dimer” (Molecular Metabolism, 2022)
Where “and” joins values, the source holds several entries; their conditions need not be identical. Equal entries are not always repeated. Where two headings read alike, the source gives them in different places.

Key:
human MPC1L/MPC2 complex [1] = target: T1, human MPC1L/MPC2 complex (Homo sapiens, UniProt O95563+P0DKB6); assay: CPM thermostability shift assay, purified MPC1L/MPC2; format: binding; details: for ΔTm at 100 µM: read-out: ∆Tm, CPM assay (thermal shift compared to no-ligand control); for Tm, CPM assay: unliganded 51.3 ± 0.2, mean ± s.d., 3 biological repeats
T1 construct: eight-histidine tag (C, cleaved yes); TEV protease cleavage site (part stays on MPC2 after digestion) (C, cleaved yes); made in house; host or cells: Saccharomyces cerevisiae SHY15 (mpc triple deletion strain), purified from mitochondria
T1 sequence (P0DKB6 2-136): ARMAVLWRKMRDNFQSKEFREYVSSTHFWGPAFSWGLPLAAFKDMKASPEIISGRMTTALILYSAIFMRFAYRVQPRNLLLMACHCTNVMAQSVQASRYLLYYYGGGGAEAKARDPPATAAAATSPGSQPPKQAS
T1 sequence (O95563 2-127): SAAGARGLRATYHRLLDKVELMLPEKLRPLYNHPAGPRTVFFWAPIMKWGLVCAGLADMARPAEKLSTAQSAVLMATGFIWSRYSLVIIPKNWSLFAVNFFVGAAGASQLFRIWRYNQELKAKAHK
Method: The assessment of ligand binding was performed via shifts in protein thermostability upon binding using thermal denaturation on a rotary quantitative PCR (qPCR) instrument (Qiagen Rotor-Gene Q 2plex HRM, Venlo, Netherlands), as previously described. In this method, cysteine residues, buried within the protein structure, become solvent-exposed during denaturation in a temperature ramp and then react with 7-diethylamino-3-(4-maleimidophenyl)-4-methylcoumarin (CPM) to form fluorescent-adducts. Briefly, a CPM working solution was prepared by diluting the CPM stock (5 mg/mL in dimethyl sulfoxide) 50-fold into assay buffer (20 mM Tris–HCl, pH 7.4, 150 mM NaCl, 0.1% (w/v) LMNG, 0.1 mg/mL TOCL) and incubated for 10 min at room temperature. In each analysis, performed in duplicates or triplicates, 3 μg of purified MPC was diluted into 45 μL of assay buffer containing the desired concentration of the inhibitor then incubated for 10 min on ice. Next, 5 μL of the CPM working solution were added. Samples were incubated on ice for an additional 10 min then subjected to a temperature ramp of 5.6 °C/min. The fluorescence increase was monitored with the HRM channel of the instrument (excitation at 440–480 nm, emission at 505–515 nm). Unfolding profiles were analysed with the Rotor-Gene Q software 2.3, and the peaks of their derivatives were used to determine the apparent melting temperature.

human MPC1L/MPC2 complex [2] = target: T1, human MPC1L/MPC2 complex; assay: nano-DSF thermostability shift assay, purified MPC1L/MPC2; format: binding; details: inhibitor 100 μM; for Tm, nano-DSF: unliganded 51.9 ± 0.1, mean ± s.d., 2 biological repeats
Method: Ligand binding was also assessed using dye-free nano differential scanning fluorimetry (nano-DSF) to monitor fluorescence changes due to altered environments of tryptophan and tyrosine residues during unfolding. Protein samples in buffer containing 20 mM Tris–HCl pH 7.4, 150 mM NaCl, 0.1% (w/v) LMNG, 0.1 mg/mL TOCL, in the presence or absence of the indicated concentrations of small molecule inhibitors, were loaded into capillary tubes, and a temperature ramp of 5 °C/min was applied. The intrinsic fluorescence was measured using the NanoTemper Prometheus NT.48 (NanoTemper, München, Germany).

[3] = target: T2, recombinant human MPC1L/MPC2 (Homo sapiens, UniProt O95563+P0DKB6); assay: Electrospray mass spectrometry of MPC1L/MPC2 after reaction with inhibitors or sulfhydryl modifiers; details: for Covalent modification of MPC protomers (molecular mass change): folded MPC1L/MPC2 incubated with compound, ESI-MS; for Modifications, MPC1L (2–136) / Modifications, MPC1L (5–136) / Modifications, MPC2 (2–137): number of covalent adducts from mass increase
T2 construct: MPC1L (2–136); MPC2 (2–137); eight-histidine tag (C, cleaved yes); TEV protease cleavage site (part stays on MPC2 after digestion) (C, cleaved yes); made in house; host or cells: Saccharomyces cerevisiae SHY15 (mpc triple deletion strain), purified from mitochondria
T2 sequence (P0DKB6 2-136 limits assumed): T1 sequence (P0DKB6 2-136)
T2 sequence (O95563 2-127 limits assumed): T1 sequence (O95563 2-127)
Method: Different MPC inhibitors (Table1) or sulfhydryl reagents were first incubated with MPC1L/MPC2 in a folded state, then the protein molecular masses were measured by electrospray mass spectrometry. The MPC subunits (10 μg) were resolved by reverse-phase HPLC on a PLRP-S column (1.0 mm i.d. X 75 mm; VARIAN) using a gradient of 2-propanol in a solvent system compatible with the recovery of membrane proteins (Carroll et al., 2009). The eluate (50 μL/min) was introduced into a QTRAP4000 (SCIEX) mass spectrometer operating in positive ion single MS mode. The instrument was scanned from 700 m/z to 2300 m/z after calibration with ions from a mixture of 1.0 μM of myoglobin and 1.5 μM trypsinogen. Molecular masses were obtained by reconstruction of the spectra of multiply charged ions using PeakView (SCIEX).

[4] = target: T3, human MPC1L/MPC2 hetero-dimer (Homo sapiens, UniProt O95563+P0DKB6); assay: Inhibition of [14C]-pyruvate homo-exchange in MPC1L/MPC2 proteoliposomes; format: biochemical; details: MPC1L/MPC2 proteoliposomes, 50 μM [14C]-pyruvate homo-exchange, mean ± s.d.; read-out: IC50 of pyruvate transport inhibition
T3 construct: eight-histidine tag (C, cleaved yes); TEV protease cleavage site (part stays on MPC2 after digestion) (C, cleaved yes); made in house; host or cells: Saccharomyces cerevisiae SHY15 (mpc triple deletion strain), purified from mitochondria
T3 sequence (P0DKB6 2-136): T1 sequence (P0DKB6 2-136)
T3 sequence (O95563 2-127): T1 sequence (O95563 2-127)
Method: Egg L-α-phosphatidylcholine 99% (w/v) (Avanti Polar Lipids, AL, USA) and TOCL were mixed in a 20:1 (w/w) ratio, dried under a stream of nitrogen and washed once with methanol before being dried again. Lipids were hydrated in 20 mM Tris–HCl, pH 8.0, 50 mM NaCl to a concentration of 12 mg/mL. Unlabeled pyruvate was added as a freshly made concentrated stock at a final concentration of 5 mM for internalisation. Lipids were solubilised with 1.2% (v/v) pentaethylene glycol monodecyl ether (Sigma) and freshly purified protein was added at a lipid-to-protein ratio of 250:1 (w/w). Samples were incubated on ice for 5 min, then liposomes were formed by the step-wise removal of pentaethylene glycol monodecyl ether by five additions at 20 min intervals of 60 mg Bio-Beads SM-2 (Bio-Rad, Watford, UK) with gentle mixing at 4 °C. A final addition of 480 mg Bio-Beads was incubated with the samples overnight. Proteoliposomes were first separated from the Bio-Beads by passage through empty spin columns (Bio-Rad, Watford, UK) and subsequently pelleted at 120,000×g for 60 min. The proteoliposomes were resuspended with a thin needle in 150 μL of their supernatant after the rest of the supernatant was removed.
The time course of pyruvate homo-exchange was measured at room temperature. The transport was initiated by diluting proteoliposomes 200-fold into external buffer, 20 mM MES, pH 6.4, 50 mM NaCl, containing 50 μM [^14C]-pyruvate (500,000 dpm, Perkin Elmer, MA, USA). The reaction (0–30 s) was terminated by rapid dilution into 8 volumes of ice-cold internal buffer (20 mM Tris–HCl, pH 8.0, 50 mM NaCl), followed by rapid filtration through cellulose nitrate 0.45 μm filters (Millipore, Gillingham, UK) and washing with an additional 8 volumes of buffer. The filters were dissolved in Ultima Gold scintillation liquid (Perkin Elmer, MA, USA) and the radioactivity was counted with a Perkin Elmer Tri-Carb 2800 RT liquid scintillation counter. […] The data analysis was performed with non-linear regression fittings using GraphPad Prism 7.0d ([Inhibitor] vs response, variable slope). The specific uptake rates were calculated based on the amount of protein used in reconstitutions, as estimated from bicinchoninic acid assay. The biological repeats represent independent proteoliposome preparations using protein from independent purifications.

[5] = MPC1L/MPC2 after reaction with compound

Row | SMILES | ΔTm at 100 µM (human MPC1L/MPC2 complex [1]; inhibitor 100 μM) [°C] | Tm, CPM assay (human MPC1L/MPC2 complex [1]; inhibitor 100 μM) [°C] | further results
1 | N#C/C(=C/c1ccc(-c2cccc([N+](=O)[O-])c2)o1)C(=O)O [Compound 9] | 11.7 ± 2 | 63.0 ± 1.8 | –
2 | N#C/C(=C/c1ccc(-c2cccc(C(F)(F)F)c2)o1)C(=O)O [Compound 6] | 8.5 ± 1.6 | 59.8 ± 1.4 | –
3 | COc1cc(C2Oc3cc([C@H]4Oc5cc(O)cc(O)c5C(=O)[C@@H]4O)ccc3OC2CO)ccc1O (stereo partly shown) [Silibinin] | 0.1 ± 0.6 | 51.4 ± 0.4 | ∆Tm, nano-DSF (human MPC1L/MPC2 complex [2]): 0.2 ± 0.3 °C; ∆Tm, nano-DSF (human MPC1L/MPC2 complex [2]; listed as silibinin): No thermal shifts; Tm, nano-DSF (human MPC1L/MPC2 complex [2]): 52.1 ± 0.2 °C; Thermal shift in the CPM assay (human MPC1L/MPC2 complex [1]; compound 1 mM): positive thermal shift; ∆Tm, CPM assay (thermal shift compared to no-ligand control) (human MPC1L/MPC2 complex [1]; inhibitor 100 μM): No thermal shifts
4 | N#C/C(=C/c1ccc(-c2ccccc2Cl)o1)C(=O)O [Compound 8] | 11 ± 1.9 | 62.3 ± 1.7 | –
5 | CS(=O)(=O)SCCN [MTSEA] | – | – | Mass difference (observed vs calculated), MPC1L (2–136) [3, 5]: +149.3 Da; Mass difference (observed vs calculated), MPC1L (5–136) [3, 5]: +149.2 Da; Covalent modification of MPC protomers (molecular mass change) [3]: modified covalently; Modifications, MPC1L (2–136) [3]: 2 x MTSEA; Modifications, MPC1L (5–136) [3]: 2 x MTSEA; Modifications, MPC2 (2–137) [3]: 1 x MTSEA
6 | CCN1C(=O)C=CC1=O [NEM] | – | – | Covalent modification of MPC protomers (molecular mass change) [3]: modified covalently; Modifications, MPC1L (2–136) [3]: 2 x NEM and 1 x NEM; Modifications, MPC1L (5–136) [3]: unmodified and 1 x NEM and 2 x NEM and 3 x NEM; Modifications, MPC2 (2–137) [3]: 2 x NEM and 1 x NEM and 3 x NEM
7 | N#C/C(=C/c1ccc(-c2ccccc2[N+](=O)[O-])o1)C(=O)O [Compound 7] | 16.5 ± 1.4 | 67.8 ± 1.2 | IC50 [4]: 5.4 ± 1.1 nM; Mass difference (observed vs calculated), MPC1L (2–136) [3, 5]: 0.5 Da; Mass difference (observed vs calculated), MPC1L (5–136) [3, 5]: 0.9 Da; Mass difference (observed vs calculated), MPC2 (2–137) [3, 5]: 1.6 Da; Covalent modification of MPC protomers (molecular mass change) [3]: no molecular mass differences
8 | CN1C(=O)NC(=O)/C(=C/c2ccc(-c3ccccc3[N+](=O)[O-])o2)C1=O [Compound 12] | 9.1 ± 0.9 | 60.4 ± 0.7 | –
9 | O=C1CN(/N=C/c2ccc([N+](=O)[O-])o2)C(=O)N1 [Nitrofurantoin, (E)-1-[(5-nitro-2-furyl)methylideneamino]imidazolidine-2,4-dione] | – | – | IC50 [4]: 3300 ± 2600 nM
10 | CN(CCOc1ccc(CC2SC(=O)NC2=O)cc1)c1ccccn1 (stereo not shown) [Rosiglitazone, rosiglitazone] | 5.3 ± 0.5 | 56.6 ± 0.3 | –
11 | CCN(CC)C(=O)/C(C#N)=C/c1cc(O)c(O)c([N+](=O)[O-])c1 [Entacapone, (2E)-2-cyano-3-(3,4-dihydroxy-5-nitrophenyl)-N,N-diethylprop-2-enamide] | – | – | ∆Tm, nano-DSF (human MPC1L/MPC2 complex [2]): 6.3 ± 1.1 °C; Tm, nano-DSF (human MPC1L/MPC2 complex [2]): 58.2 ± 1.0 °C; IC50 [4]: 630 ± 53 nM
12 | O=C1NC(=O)C(=Cc2ccc(-c3ccccc3[N+](=O)[O-])o2)C(=O)N1 [Compound 11] | – | 57.7 ± 2.1 | ΔTm at 100 µM (human MPC1L/MPC2 complex [1]): 6.4 ± 2.3 °C
13 | CCc1ccc(CCOc2ccc(CC3SC(=O)NC3=O)cc2)nc1 (stereo not shown) [Pioglitazone, pioglitazone] | 5.1 ± 0.9 | 56.4 ± 0.7 | ∆Tm, nano-DSF (human MPC1L/MPC2 complex [2]): 1.1 ± 0.3 °C; Tm, nano-DSF (human MPC1L/MPC2 complex [2]): 53.0 ± 0.2 °C
14 | O=C(O)C(=Cc1ccc(-c2ccccc2[N+](=O)[O-])o1)C(=O)O [Compound 10] | -0.1 ± 1.1 | 51.2 ± 0.9 | ∆Tm, CPM assay (thermal shift compared to no-ligand control) (human MPC1L/MPC2 complex [1]; inhibitor 100 μM): No thermal shift
15 | N#C/C(=C/c1ccc(-c2ccc(Cl)cc2)o1)C(=O)O [Compound 5] | 9 ± 1.6 | 60.3 ± 1.4 | –
16 | C=CCN1C(=O)NC(=O)/C(=C/c2ccc(-c3ccccc3[N+](=O)[O-])o2)C1=O [Compound 13] | 7.4 ± 1.9 | 58.7 ± 1.7 | –
17 | COc1ccc(/C=C(/C#N)C(=O)O)cc1 [Compound 1] | 9.1 ± 1.2 | 60.4 ± 1.0 | –
18 | CCc1ccc(C(=O)COc2ccc(CC3SC(=O)NC3=O)cc2)nc1 (stereo not shown) [Mitoglitazone, mitoglitazone] | 5.4 ± 0.8 | 56.7 ± 0.6 | ∆Tm, nano-DSF (human MPC1L/MPC2 complex [2]): 1.9 ± 0.5 °C; Tm, nano-DSF (human MPC1L/MPC2 complex [2]): 53.8 ± 0.4 °C
19 | N#C/C(=C/c1ccc(-c2ccc(F)cc2)o1)C(=O)O [Compound 4] | 9.1 ± 1.5 | 60.4 ± 1.3 | –
20 | N#C/C(=C/c1ccc(-c2ccc(Br)cc2)o1)C(=O)O [Compound 3] | 8.4 ± 1.3 | 59.7 ± 1.1 | –
